Laboratory results from paper PMC5028780, “Receptor and transporter binding and activity profiles of albiflorin extracted from Radix paeoniae Alba” (Scientific Reports, 2016).
Values joined by “and” are separate entries in the source; they are usually repeats but may differ in a detail not shown here. Identical values can stand only once.

Tests used:
[1] = target: α2A (Rattus norvegicus, UniProt P22909); test: CNS receptor binding, NE receptor α2A; conditions: Rat Cortex, [3H]-clonidine(2)
Method: (§1) Albiflorin (10 μM) was tested for numerous other potential binding targets by using standard receptor binding procedures. The tested targets included the following receptors: D1, D2, D3, D4, D5, 5-HT1A, 5-HT1B, 5-HT1D, 5-HT2a, 5-HT2C, 5-HT3, 5-HT5A, 5-HT6, 5-HT7, α1A, α1B, α2A, β1, M1, M2, M3, M4, M5, μ, κ, δ, A1, A2A, H1, H2, H3, H4.

[2] = target: δ (Homo sapiens, UniProt P41143); test: CNS receptor binding, opioid δ; conditions: CHO cell line, [3H]-dipnorphine(1)
Method: as §1

[3] = target: 5-HT1B (Homo sapiens, UniProt P28222); test: CNS receptor binding, 5-HT1B; conditions: HEK293 cell line, [3H]-LSD(6)
Method: as §1

[4] = target: α1B (Homo sapiens, UniProt P35368); test: CNS receptor binding, NE receptor α1B; conditions: HEK293 cell line, [3H]-parzosin(1)
Method: as §1

[5] = target: T1, D2 (Homo sapiens, UniProt P14416); test: CNS receptor binding, dopamine D2; conditions: HEK293 cell line, [3H]-spiperone(1)
T1 construct: expressed in transfected cells; host or cells: HEK293 cell line
Method: as §1

[6] = target: 5-HT7 (Homo sapiens, UniProt P34969); test: CNS receptor binding, 5-HT7; conditions: HEK293 cell line, [3H]-LSD(4)
Method: as §1

[7] = target: H4 (Homo sapiens, UniProt Q9H3N8); test: CNS receptor binding, histamine H4; conditions: CHO cell line, [3H]-histamine(1)
Method: as §1

[8] = target: μ (Homo sapiens, UniProt P35372); test: CNS receptor binding, opioid μ; conditions: CHO cell line, [3H]-dipnorphine(1)
Method: as §1

[9] = target: T2, rat SERT (Rattus norvegicus, UniProt P31652); test: Rat monoamine transporter binding assay, SERT; conditions: [3H]-citalopram, Cerebral cortex
T2 construct: from tissue; host or cells: Sprague-Dawley rat cerebral cortex membranes
Method: (§2) Male Sprague–Dawley rats were killed by cervical dislocation, and their brains were rapidly removed and then dissected on ice. The cerebral cortex, hypothalamus and striatum were homogenised in 4 mL of assay buffer (50 mM Tris–HCl buffer, pH 7.4.) and centrifuged at 40,000× g for 10 min at 4 °C. The pellets were centrifuged twice at 20,000× g and then resuspended in 4 mL of assay buffer. […] Bio-Rad protein assay reagents (1:5 ratio) were used to analyse the protein concentration of the synaptosomal suspension.
(§3) All data for inhibition curves were analysed by nonlinear regression using Prism software (GraphPad Software Inc., San Diego, CA) to determine IC50 values. For the microdialysis experiments, two-way repeated-measures ANOVA followed by Tukey’s test was used to compare the percentage increase over baseline between groups, time and treatment as independent factors, and time as the repeated factor.

[10] = target: H2 (Homo sapiens, UniProt P25021); test: CNS receptor binding, histamine H2; conditions: HEK293 cell line, [3H]-tiotodine(1)
Method: as §1

[11] = target: H3 (Homo sapiens, UniProt Q9Y5N1); test: CNS receptor binding, histamine H3; conditions: CHO cell line, [3H]-hestamine(1)
Method: as §1

[12] = target: M5 (Homo sapiens, UniProt P08912); test: CNS receptor binding, muscarinic M5; conditions: CHO cell line, [3H]-NMS(1)
Method: as §1

[13] = target: T3, SERT (Rattus norvegicus, UniProt P31652); test: Rat synaptosome uptake assay, [3H]-5-HT; format: biochemical; conditions: Mid brain synaptosome
T3 construct: rat brain synaptosomes were prepared and treated with various concentrations of albiflorin; from tissue; host or cells: Sprague-Dawley rat brain synaptosomes (cerebral cortex in the text)
Method: Male Sprague–Dawley rats were killed by asphyxiation with carbon dioxide and cervical dislocation followed by decapitation. […] All dissected tissues were homogenised using a Teflon-glass tissue homogeniser in 4 mL of ice-cold sucrose (0.32 M). The homogenised tissue was centrifuged at 2,000× g for 10 min at 4 °C. […] Bio-Rad protein assay reagents (1:5 ratio) were used to analyse the protein concentration of the synaptosomal suspension. Uptake of 5-HT, NE and DA was determined as described previously. The compounds to be tested were dissolved in DMSO, further diluted with assay buffer, and tested over a 10-log unit concentration range in duplicate. Samples of 30–50 μg of synaptosomes (per sample in a total volume of 200 μL) were preincubated at 37 °C in a shaking water bath for 10 min. Vehicle or modifiers were then added for 10–20 min. Uptake was initiated by adding [^3H]-5-HT (20 nM), [^3H]-NE (20 nM), or [^3H]-DA (50 nM). After a 10-min incubation at 37 °C, uptake was terminated by filtration through (polyethyleneimine-coated) GF/B Whatman filters using a Brandel Cell Harvester (Brandel, Gaithersburg, MD).
All data for inhibition curves were analysed by nonlinear regression using Prism software (GraphPad Software Inc., San Diego, CA) to determine IC50 values. […]

[14] = target: T4, rat NET (Rattus norvegicus, UniProt Q63380); test: Rat monoamine transporter binding assay, NET
T4 construct: from tissue; host or cells: Sprague-Dawley rat hypothalamus membranes
Method: as §2, §3

[15] = tested on: duration of immobility; design: method as in PMID 26719283; conditions: mice; short- and long-term administration; cited from earlier work
[16] = read-out: IC50 values for albiflorin

T4 sequence (Q63380 1-617): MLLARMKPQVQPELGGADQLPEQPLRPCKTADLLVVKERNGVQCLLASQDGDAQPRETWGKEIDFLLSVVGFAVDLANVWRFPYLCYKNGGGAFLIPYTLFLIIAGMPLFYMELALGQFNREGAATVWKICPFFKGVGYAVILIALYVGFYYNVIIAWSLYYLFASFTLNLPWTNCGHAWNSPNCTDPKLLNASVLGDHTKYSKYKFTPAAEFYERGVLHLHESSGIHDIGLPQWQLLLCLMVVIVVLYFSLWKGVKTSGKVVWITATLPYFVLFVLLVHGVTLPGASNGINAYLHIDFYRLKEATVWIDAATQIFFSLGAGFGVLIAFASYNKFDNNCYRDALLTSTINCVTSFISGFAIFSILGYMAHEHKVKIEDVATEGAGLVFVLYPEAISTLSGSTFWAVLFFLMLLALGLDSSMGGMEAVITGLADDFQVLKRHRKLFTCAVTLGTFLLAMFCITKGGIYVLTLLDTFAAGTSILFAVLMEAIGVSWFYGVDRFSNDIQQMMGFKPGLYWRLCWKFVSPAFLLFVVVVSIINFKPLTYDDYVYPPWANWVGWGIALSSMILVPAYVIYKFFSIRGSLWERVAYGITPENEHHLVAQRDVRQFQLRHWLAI
H4, sequence (Q9H3N8 whole entry): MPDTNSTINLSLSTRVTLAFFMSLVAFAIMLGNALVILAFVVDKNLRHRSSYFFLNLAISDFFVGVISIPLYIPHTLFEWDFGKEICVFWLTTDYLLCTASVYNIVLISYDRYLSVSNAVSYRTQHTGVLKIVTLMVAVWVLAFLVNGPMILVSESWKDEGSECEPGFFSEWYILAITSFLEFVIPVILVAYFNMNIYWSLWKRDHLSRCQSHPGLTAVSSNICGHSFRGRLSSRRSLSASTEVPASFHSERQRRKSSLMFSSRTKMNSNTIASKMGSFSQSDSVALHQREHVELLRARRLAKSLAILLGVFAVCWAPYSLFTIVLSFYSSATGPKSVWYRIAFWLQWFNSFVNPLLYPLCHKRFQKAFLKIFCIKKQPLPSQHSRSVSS
5-HT7, sequence (P34969 whole entry): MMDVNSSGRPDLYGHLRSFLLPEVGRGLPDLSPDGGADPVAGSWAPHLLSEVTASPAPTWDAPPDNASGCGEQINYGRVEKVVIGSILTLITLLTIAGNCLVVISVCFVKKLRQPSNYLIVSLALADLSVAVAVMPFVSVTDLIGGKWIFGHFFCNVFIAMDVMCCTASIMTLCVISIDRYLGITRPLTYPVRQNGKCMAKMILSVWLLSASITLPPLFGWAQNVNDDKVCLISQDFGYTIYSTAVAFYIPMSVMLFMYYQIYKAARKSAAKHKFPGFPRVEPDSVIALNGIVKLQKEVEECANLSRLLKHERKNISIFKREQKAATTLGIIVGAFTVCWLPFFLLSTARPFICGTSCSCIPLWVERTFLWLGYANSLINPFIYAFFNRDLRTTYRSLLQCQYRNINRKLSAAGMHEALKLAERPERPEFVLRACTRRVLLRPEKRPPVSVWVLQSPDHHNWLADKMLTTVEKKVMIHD
μ, sequence (P35372 whole entry): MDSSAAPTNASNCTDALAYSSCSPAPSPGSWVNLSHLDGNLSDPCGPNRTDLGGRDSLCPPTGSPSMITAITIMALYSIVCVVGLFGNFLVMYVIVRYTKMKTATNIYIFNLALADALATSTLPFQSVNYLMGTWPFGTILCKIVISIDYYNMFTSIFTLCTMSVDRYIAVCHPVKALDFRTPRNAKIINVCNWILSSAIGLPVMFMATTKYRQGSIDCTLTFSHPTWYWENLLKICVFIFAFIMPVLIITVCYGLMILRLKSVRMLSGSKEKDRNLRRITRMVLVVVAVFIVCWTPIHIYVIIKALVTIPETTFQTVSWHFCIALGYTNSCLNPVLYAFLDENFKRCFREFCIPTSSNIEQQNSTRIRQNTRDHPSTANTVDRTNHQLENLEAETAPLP
α1B, sequence (P35368 whole entry): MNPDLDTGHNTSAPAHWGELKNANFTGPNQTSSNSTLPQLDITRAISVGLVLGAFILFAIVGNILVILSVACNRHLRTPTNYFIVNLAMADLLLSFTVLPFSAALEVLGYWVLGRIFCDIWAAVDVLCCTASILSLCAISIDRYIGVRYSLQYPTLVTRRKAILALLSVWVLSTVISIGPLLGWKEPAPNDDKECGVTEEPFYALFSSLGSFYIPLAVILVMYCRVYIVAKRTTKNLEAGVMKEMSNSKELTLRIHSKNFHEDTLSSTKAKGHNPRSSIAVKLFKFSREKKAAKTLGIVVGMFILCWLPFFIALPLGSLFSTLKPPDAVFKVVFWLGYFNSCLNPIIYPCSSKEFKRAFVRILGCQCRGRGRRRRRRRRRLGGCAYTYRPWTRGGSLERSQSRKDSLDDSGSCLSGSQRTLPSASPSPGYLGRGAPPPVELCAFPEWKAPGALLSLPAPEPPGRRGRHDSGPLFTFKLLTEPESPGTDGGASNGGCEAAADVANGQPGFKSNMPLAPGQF
H2, sequence (P25021 whole entry): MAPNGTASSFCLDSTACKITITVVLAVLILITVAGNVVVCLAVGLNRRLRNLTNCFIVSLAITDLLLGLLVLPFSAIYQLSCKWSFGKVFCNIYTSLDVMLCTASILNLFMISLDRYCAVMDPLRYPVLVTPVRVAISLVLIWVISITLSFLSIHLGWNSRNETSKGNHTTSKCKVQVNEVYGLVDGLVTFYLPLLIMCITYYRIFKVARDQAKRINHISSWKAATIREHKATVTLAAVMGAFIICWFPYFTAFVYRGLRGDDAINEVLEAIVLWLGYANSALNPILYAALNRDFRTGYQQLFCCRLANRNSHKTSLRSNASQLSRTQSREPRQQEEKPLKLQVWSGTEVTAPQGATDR
5-HT1B, sequence (P28222 whole entry): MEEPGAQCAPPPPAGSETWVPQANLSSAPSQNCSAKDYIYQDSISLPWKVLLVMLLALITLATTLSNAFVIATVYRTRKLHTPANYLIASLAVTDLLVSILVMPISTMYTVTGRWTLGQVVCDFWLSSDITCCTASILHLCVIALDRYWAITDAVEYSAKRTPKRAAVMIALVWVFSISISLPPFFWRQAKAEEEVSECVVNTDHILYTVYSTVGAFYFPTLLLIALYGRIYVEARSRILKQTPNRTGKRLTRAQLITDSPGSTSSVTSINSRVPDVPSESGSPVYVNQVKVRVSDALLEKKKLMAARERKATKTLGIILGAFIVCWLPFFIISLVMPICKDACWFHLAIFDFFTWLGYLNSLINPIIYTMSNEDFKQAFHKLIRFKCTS
δ, sequence (P41143 whole entry): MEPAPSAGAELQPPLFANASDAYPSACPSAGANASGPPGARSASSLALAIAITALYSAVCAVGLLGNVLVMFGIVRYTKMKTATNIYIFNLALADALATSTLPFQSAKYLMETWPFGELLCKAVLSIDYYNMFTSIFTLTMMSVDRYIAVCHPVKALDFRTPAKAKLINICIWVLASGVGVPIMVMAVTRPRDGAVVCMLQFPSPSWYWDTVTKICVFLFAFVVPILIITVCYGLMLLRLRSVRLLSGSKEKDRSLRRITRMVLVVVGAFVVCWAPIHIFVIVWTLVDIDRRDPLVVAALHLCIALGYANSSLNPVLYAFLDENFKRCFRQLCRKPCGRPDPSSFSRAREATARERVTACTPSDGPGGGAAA
H3, sequence (Q9Y5N1 whole entry): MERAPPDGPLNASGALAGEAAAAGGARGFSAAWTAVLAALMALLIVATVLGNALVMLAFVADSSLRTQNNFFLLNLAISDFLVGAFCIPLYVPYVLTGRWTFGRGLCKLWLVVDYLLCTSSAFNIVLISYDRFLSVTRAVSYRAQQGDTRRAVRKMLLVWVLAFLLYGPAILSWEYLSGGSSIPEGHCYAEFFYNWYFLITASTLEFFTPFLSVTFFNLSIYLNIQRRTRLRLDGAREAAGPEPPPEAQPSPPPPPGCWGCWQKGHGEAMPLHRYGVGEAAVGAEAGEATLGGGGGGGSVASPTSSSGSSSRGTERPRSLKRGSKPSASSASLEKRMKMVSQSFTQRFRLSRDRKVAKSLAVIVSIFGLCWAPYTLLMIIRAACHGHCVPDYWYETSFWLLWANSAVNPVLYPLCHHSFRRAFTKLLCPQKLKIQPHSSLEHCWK
M5, sequence (P08912 whole entry): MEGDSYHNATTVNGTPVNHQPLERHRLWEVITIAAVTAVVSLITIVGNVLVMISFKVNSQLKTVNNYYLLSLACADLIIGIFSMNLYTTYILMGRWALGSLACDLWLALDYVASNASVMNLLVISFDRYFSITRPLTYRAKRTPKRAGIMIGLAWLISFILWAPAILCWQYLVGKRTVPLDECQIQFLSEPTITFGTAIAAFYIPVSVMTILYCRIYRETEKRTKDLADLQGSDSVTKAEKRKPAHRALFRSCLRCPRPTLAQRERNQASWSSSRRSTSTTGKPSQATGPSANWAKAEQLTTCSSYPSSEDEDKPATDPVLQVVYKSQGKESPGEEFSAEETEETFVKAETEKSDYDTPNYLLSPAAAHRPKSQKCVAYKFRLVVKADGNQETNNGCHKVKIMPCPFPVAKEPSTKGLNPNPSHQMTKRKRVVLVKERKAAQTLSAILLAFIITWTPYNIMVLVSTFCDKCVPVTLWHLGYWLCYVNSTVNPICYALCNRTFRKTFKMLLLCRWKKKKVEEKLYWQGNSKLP
α2A, sequence (P22909 whole entry): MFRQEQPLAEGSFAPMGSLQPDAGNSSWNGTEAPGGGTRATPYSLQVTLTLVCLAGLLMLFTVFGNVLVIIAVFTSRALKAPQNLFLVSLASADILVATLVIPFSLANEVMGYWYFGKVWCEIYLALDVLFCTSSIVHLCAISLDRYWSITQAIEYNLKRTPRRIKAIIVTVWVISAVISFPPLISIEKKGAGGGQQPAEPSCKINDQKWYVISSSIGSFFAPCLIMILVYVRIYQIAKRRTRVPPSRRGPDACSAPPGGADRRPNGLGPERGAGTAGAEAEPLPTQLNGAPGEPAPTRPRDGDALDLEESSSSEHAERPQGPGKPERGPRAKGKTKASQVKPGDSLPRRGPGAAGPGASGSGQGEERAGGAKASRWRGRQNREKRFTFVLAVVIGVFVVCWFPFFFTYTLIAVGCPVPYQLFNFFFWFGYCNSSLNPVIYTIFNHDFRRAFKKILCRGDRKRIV

C[C@]12C[C@@H](O)[C@@H]3C[C@@]1(O[C@@H]1O[C@H](CO)[C@@H](O)[C@H](O)[C@H]1O)[C@@]3(COC(=O)c1ccccc1)C(=O)O2 [albiflorin, Albiflorin]
% Inhibition of binding at 10 μM albiflorin [1]: 36.66% | IC50 [1, 16]: > 10 µM | % Inhibition of binding at 10 μM albiflorin [2]: 66.33% | IC50 [2, 16]: 3.66 ± 0.201 µM | % Inhibition of binding at 10 μM albiflorin [3]: 16.60% | IC50 [3, 16]: > 10 µM | % Inhibition of binding at 10 μM albiflorin [4]: 12.33% | IC50 [4, 16]: > 10 µM | % Inhibition of binding at 10 μM albiflorin [5]: 12.50% | IC50 [5, 16]: > 10 µM | % Inhibition of binding at 10 μM albiflorin [6]: 14.55% | IC50 [6, 16]: > 10 µM | % Inhibition of binding at 10 μM albiflorin [7]: 6.33% | IC50 [7, 16]: > 10 µM | % Inhibition of binding at 10 μM albiflorin [8]: 23.66% | IC50 [8, 16]: > 10 µM | Ki [9]: 5.25 ± 0.17 nM | % Inhibition of binding at 10 μM albiflorin [10]: 68.99% | IC50 [10, 16]: 4 ± 0.201 µM | % Inhibition of binding at 10 μM albiflorin [11]: 12.33% | IC50 [11, 16]: > 10 µM | % Inhibition of binding at 10 μM albiflorin [12]: 20.11% | IC50 [12, 16]: > 10 µM | IC50 [13]: 3.04 ± 0.84 nM | Ki ([14]; Rat, [3H]-nisoxetine, Hypothalamus): 1.25 ± 0.77 nM | potency/affinity relative to desipramine at the rat NET ([14]; albiflorin vs desipramine): 4 fold and 6 fold | antidepressant-like effect, forced-swim test [15]: decreases in the duration of immobility
